# Laboratory results as given in patent publication US20250243171A1, “QUINAZOLINE COMPOUNDS FOR TREATMENT OF DISEASE” (Arthrosi Therapeutics, Inc., priority 2021, published 2025).
# Tests used:
# Assay in all cases: EC50 assay: Ba/F3 stable cell proliferation (CCK-8, 72 h)
# Format in all cases: cell-based
# [1] = biological target: T1, Ba/F3 stable cells (Homo sapiens, UniProt P00533, T790M/L858R, cells depend on it); conditions: Ba/F3-EGFR L858R-T790M cells
# T1 construct: EC50 Ba/F3-EGFR L858R-T790M; other: Ba/F3-EGFR L858R-T790M cells, 72 h, CCK-8
# Outline: (§1)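 Ba/F3 stable cells were seeded at 4,000 cells/90 μL/well in 96-well plates and held 2 h at 37° C. in 5% CO2, then given 10 μL of serially titrated compound (0.1% DMSO final). After 72 h at 37° C., CCK-8 reagent was added for 4 hours and absorbance read at 450 nm to derive EC50.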
# [2] = biological target: T2, Ba/F3 stable cells (Homo sapiens, UniProt P00533, DUP768-770, cells depend on it); conditions: Ba/F3-EGFR D770-N771insSVD cells
# T2 construct: EC50 Ba/F3-EGFR D770-N771insSVD; other: Ba/F3-EGFR D770-N771insSVD cells, 72 h, CCK-8
# Outline: as §1
# [3] = biological target: T3, Ba/F3 stable cells (Homo sapiens, UniProt P00533, DUP771-773, cells depend on it); conditions: Ba/F3-EGFR H773-V774insNPH cells
# T3 construct: EC50 Ba/F3-EGFR H773-V774insNPH; other: Ba/F3-EGFR H773-V774insNPH cells, 72 h, CCK-8
# Outline: as §1
# [4] = biological target: T4, Ba/F3 stable cells (Homo sapiens, UniProt P00533, DUP767-769, cells depend on it); conditions: Ba/F3-EGFR V769-D770insASV cells
# T4 construct: EC50 Ba/F3-EGFR V769-D770insASV; other: Ba/F3-EGFR V769-D770insASV cells, 72 h, CCK-8
# Outline: as §1
# [5] = biological target: T5, Ba/F3 stable cells (Homo sapiens, UniProt P00533, INS763FQEA, cells depend on it); conditions: Ba/F3-EGFR A763-Y764insFQEA cells
# T5 construct: EC50 Ba/F3-EGFR A763-Y764insFQEA; other: Ba/F3-EGFR A763-Y764insFQEA cells, 72 h, CCK-8
# Outline: as §1
# [6] = biological target: T6, Ba/F3 stable cells (Homo sapiens, UniProt P04626, DUP772-775, cells depend on it); conditions: Ba/F3-HER2 A775-G776insYVMA cells
# T6 construct: EC50 Ba/F3-HER2 A775-G776insYVMA; other: Ba/F3-HER2 A775-G776insYVMA cells, 72 h, CCK-8
# Outline: as §1
# T6 sequence (P04626 with tags, fused parts or gaps DUP772-775): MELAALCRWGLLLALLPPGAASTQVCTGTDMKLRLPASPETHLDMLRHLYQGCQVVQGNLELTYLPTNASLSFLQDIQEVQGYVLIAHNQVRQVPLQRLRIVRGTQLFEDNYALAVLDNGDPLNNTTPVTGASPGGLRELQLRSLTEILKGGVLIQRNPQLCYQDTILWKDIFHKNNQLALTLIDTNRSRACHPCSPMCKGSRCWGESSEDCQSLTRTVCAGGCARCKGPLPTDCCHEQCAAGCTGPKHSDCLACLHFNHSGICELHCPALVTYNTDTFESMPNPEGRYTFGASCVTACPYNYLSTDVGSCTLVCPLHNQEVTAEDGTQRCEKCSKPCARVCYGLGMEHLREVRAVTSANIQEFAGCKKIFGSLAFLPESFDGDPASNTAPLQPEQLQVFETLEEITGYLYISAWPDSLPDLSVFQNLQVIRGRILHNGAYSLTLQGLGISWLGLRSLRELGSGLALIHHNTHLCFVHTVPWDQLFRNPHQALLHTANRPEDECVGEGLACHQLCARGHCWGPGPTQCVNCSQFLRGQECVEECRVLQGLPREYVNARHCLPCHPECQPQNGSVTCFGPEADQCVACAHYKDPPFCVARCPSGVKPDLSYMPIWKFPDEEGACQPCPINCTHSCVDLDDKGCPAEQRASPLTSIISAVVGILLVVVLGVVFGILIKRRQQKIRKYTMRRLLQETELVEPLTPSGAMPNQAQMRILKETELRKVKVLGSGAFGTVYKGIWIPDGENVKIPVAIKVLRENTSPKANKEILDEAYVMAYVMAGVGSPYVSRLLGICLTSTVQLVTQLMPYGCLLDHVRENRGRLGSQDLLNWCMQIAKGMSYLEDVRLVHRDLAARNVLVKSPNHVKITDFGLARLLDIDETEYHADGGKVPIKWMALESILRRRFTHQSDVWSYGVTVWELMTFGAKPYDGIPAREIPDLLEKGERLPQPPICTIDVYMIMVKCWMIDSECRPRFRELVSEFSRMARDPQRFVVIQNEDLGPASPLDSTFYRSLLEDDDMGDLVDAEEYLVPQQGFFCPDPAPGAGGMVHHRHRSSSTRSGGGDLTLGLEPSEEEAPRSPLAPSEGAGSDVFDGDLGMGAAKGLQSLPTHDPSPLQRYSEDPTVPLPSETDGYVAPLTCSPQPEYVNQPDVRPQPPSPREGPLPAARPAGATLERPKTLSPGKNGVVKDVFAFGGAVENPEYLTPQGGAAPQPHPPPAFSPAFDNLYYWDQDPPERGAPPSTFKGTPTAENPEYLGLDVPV
# T4 sequence (P00533 with tags, fused parts or gaps DUP767-769): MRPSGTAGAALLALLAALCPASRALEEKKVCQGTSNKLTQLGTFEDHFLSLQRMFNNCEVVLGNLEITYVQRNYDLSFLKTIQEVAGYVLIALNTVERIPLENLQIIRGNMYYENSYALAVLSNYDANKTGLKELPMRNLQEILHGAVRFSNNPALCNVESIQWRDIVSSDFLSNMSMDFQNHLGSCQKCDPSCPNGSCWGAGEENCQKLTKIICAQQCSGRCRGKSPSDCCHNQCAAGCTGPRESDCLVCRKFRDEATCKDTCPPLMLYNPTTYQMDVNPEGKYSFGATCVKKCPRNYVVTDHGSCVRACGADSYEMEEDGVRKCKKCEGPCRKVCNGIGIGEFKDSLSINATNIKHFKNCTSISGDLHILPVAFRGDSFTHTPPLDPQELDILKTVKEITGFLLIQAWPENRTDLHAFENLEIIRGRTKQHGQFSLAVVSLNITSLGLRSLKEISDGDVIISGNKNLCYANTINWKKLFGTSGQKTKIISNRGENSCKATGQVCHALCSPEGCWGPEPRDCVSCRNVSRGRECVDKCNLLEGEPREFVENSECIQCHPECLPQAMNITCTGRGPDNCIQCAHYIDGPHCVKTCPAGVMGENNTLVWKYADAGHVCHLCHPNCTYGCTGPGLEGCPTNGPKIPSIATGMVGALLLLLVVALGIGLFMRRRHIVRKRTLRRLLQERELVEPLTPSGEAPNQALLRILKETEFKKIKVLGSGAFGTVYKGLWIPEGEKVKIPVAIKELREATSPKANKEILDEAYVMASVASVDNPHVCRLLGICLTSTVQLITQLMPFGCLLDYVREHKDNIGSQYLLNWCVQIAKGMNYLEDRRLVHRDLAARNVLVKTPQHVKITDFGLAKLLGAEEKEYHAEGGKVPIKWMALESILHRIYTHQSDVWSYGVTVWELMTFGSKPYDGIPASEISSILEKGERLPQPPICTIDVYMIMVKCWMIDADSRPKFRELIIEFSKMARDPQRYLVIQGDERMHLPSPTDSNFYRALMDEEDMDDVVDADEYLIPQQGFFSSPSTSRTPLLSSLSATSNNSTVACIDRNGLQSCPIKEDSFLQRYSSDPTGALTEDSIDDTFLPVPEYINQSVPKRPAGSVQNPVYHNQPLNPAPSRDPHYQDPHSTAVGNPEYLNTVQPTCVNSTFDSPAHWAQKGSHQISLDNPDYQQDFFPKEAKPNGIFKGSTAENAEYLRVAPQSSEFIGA
# T5 sequence (P00533 with tags, fused parts or gaps INS763FQEA): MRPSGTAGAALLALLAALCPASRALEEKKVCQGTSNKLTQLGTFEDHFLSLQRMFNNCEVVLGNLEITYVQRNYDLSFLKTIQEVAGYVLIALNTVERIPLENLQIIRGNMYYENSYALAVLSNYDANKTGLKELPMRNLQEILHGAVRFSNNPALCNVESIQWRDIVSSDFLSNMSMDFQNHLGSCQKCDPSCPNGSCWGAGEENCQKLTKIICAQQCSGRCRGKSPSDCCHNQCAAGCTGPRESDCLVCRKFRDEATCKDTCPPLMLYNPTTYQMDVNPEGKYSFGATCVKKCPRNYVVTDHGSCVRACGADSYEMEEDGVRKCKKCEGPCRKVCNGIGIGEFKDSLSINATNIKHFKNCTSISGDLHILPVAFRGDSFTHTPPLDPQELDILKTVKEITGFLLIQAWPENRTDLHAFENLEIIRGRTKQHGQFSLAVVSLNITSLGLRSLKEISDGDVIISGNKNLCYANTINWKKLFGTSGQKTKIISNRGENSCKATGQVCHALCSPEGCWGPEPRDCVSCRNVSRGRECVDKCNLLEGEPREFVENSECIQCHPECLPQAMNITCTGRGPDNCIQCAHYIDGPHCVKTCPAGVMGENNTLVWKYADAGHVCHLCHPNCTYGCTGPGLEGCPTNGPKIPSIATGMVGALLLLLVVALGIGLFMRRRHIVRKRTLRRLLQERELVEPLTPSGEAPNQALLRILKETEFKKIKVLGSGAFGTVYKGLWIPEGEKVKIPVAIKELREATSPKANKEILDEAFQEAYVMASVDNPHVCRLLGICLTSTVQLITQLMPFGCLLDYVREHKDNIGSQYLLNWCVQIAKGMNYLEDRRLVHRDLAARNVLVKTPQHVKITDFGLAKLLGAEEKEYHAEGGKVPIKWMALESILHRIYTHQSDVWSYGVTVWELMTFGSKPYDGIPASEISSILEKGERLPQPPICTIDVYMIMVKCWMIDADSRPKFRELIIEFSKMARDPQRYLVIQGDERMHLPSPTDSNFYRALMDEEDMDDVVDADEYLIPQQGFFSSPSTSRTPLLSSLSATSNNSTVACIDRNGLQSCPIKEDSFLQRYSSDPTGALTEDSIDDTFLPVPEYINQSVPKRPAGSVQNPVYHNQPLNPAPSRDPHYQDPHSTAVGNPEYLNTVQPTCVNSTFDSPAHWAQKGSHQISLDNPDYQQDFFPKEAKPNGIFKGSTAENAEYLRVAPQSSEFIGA
# T3 sequence (P00533 with tags, fused parts or gaps DUP771-773): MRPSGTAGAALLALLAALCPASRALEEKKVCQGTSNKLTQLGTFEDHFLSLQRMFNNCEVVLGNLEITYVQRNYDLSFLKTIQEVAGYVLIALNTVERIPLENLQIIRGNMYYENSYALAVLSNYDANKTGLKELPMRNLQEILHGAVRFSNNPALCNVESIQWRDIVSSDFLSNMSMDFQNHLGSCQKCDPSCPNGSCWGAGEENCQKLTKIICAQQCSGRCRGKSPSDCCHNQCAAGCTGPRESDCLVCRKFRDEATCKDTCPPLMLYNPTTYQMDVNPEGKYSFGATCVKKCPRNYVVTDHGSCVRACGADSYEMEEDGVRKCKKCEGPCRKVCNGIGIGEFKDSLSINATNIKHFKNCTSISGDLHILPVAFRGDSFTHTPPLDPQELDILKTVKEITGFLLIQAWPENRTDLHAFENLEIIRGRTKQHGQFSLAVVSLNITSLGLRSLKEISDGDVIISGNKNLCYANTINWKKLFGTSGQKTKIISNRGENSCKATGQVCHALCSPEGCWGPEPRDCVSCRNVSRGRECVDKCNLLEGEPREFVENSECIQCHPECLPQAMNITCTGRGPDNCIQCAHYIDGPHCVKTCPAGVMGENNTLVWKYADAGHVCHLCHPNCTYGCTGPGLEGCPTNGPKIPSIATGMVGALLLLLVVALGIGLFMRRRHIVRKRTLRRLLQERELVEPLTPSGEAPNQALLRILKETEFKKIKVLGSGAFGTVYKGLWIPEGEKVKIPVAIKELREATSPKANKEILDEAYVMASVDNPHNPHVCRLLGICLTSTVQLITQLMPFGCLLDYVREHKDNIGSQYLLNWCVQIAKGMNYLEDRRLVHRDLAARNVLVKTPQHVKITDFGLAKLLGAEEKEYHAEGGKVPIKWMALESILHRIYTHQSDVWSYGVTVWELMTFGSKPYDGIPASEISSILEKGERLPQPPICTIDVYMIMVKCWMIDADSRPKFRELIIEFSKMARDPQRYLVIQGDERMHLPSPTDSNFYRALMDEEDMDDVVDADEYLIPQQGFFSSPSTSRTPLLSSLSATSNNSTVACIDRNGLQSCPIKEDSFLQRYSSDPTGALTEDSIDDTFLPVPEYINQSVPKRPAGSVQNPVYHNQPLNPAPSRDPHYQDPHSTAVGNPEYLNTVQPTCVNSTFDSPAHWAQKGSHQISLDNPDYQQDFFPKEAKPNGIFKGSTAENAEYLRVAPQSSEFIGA
SMILES,EC50 [1],EC50 [2],EC50 [3],EC50 [4],EC50 [5],EC50 [6]
"C#CC(=O)N[C@H]1C[C@H](Oc2cc3c(Nc4ccc5ccccc5c4)ncnc3cc2OC)C1 [Compound 48, N-((1r,3r)-3-((7-methoxy-4-(naphthalen-2-ylamino)quinazolin-6-yl)oxy)cyclobutyl)propiolamide]",≤ 200 nM,200 to 1000 nM,200 to 1000 nM,≤ 200 nM,≤ 200 nM,200 to 1000 nM
"C=CS(=O)(=O)N1CCC(Oc2cc3c(C(=O)c4ccc(Cl)c(Cl)c4F)ncnc3cc2OC)CC1 [Compound 193, (3,4-dichloro-2-fluorophenyl)(7-methoxy-6-((1-(vinylsulfonyl)piperidin-4-yl)oxy)quinazolin-4-yl)methanone]",200 to 1000 nM,> 1000 nM,200 to 1000 nM,200 to 1000 nM,≤ 200 nM,> 1000 nM
"C=CC(=O)N1CC(c2cc3c(Nc4ccc5ccccc5c4)ncnc3cc2OC)C1 [Compound 5, 1-(3-(7-methoxy-4-(naphthalen-2-ylamino)quinazolin-6-yl)azetidin-1-yl)prop-2-en-1-one]",200 to 1000 nM,200 to 1000 nM,200 to 1000 nM,≤ 200 nM,≤ 200 nM,200 to 1000 nM
"C=CC(=O)N1CCC(Oc2cc3c(Nc4cccc5ccccc45)ncnc3cc2OC)CC1 [Compound 149, 1-(4-((7-methoxy-4-(naphthalen-1-ylamino)quinazolin-6-yl)oxy)piperidin-1-yl)prop-2-en-1-one]",≤ 200 nM,≤ 200 nM,≤ 200 nM,≤ 200 nM,≤ 200 nM,≤ 200 nM
"C#CC(=O)N[C@H]1C[C@@H](Oc2cc3c(Nc4cccc5ccccc45)ncnc3cc2OC)C1 [Compound 47, N-((1s,3s)-3-((7-methoxy-4-(naphthalen-1-ylamino)quinazolin-6-yl)oxy)cyclobutyl)propiolamide]",≤ 200 nM,≤ 200 nM,≤ 200 nM,≤ 200 nM,≤ 200 nM,200 to 1000 nM
"C=CC(=O)N[C@H]1C[C@@H](Oc2cc3c(Nc4ccc(Cl)c(Cl)c4)ncnc3cc2OC)C1 [Compound 82, N-((1s,3s)-3-((4-((3,4-dichlorophenyl)amino)-7-methoxyquinazolin-6-yl)oxy)cyclobutyl)acrylamide]",200 to 1000 nM,200 to 1000 nM,200 to 1000 nM,≤ 200 nM,≤ 200 nM,200 to 1000 nM
"C=CC(=O)N1C2CCCC1CC(Oc1cc3c(Nc4cccc5c4CCC5)ncnc3cc1OC)C2 (stereo not drawn) [Compound 182, 1-(3-((4-((2,3-dihydro-1H-inden-4-yl)amino)-7-methoxyquinazolin-6-yl)oxy)-9-azabicyclo[3.3.1]nonan-9-yl)prop-2-en-1-one]",200 to 1000 nM,> 1000 nM,200 to 1000 nM,200 to 1000 nM,≤ 200 nM,> 1000 nM
"C=CC(=O)N1CCC(Oc2cc3c(NC(C(=O)O)c4cccc(Cl)c4)ncnc3cc2OC)CC1 (stereo not drawn) [Compound 126, 2-((6-((1-acryloylpiperidin-4-yl)oxy)-7-methoxyquinazolin-4-yl)amino)-2-(3-chlorophenyl)acetic acid]",> 1000 nM,> 1000 nM,> 1000 nM,> 1000 nM,> 1000 nM,> 1000 nM
"C#CC(=O)NC1CC(Oc2cc3c(Nc4ccc(Cl)c(Cl)c4F)ncnc3cc2OC)C1 (stereo not drawn) [Compound 49, N-(3-((4-((3,4-dichloro-2-fluorophenyl)amino)-7-methoxyquinazolin-6-yl)oxy)cyclobutyl)propiolamide]",≤ 200 nM,≤ 200 nM,≤ 200 nM,≤ 200 nM,≤ 200 nM,200 to 1000 nM
"C#CC(=O)N1C2CCCC1CC(Oc1cc3c(Nc4cccc5ccccc45)ncnc3cc1OC)C2 (stereo not drawn) [Compound 57, 1-(3-((7-methoxy-4-(naphthalen-1-ylamino)quinazolin-6-yl)oxy)-9-azabicyclo[3.3.1]nonan-9-yl)prop-2-yn-1-one]",≤ 200 nM,≤ 200 nM,≤ 200 nM,≤ 200 nM,≤ 200 nM,≤ 200 nM
